Data taken from patent publication US20160263155A1, “T CELL RECEPTORS DIRECTED AGAINST THE PREFERENTIALLY EXPRESSED ANTIGEN OF MELANOMA AND USES THEREOF” (LEIDEN UNIVERSITY MEDICAL CENTER, priority 2015, published 2016).
“Also recorded” adds a separate entry of the source.

B1: IFN-gamma: interferon used to treat tumor cell lines for 48 h (protein, UniProt P01579 24-161, looked up)
Interferon gamma: QDPYVKEAENLKKYFNAGHSDVADNGTLFLGILKNWKEESDRKIMQSQIVSFYFKLFKNFKDDQSIQKSVETIKEDMNVKFFNSNKKKRDDFEKLTNYSVTDLNVQRKAIHELIQVMAELSPAAKTGKRKRSQMLFRG

Columns and labels:
cells = assay: Amount of AP1903 needed in vitro for effective signaling of cells; format: cell-based
Experimental: The fixed dose of AP1903 for injection used, for example, may be 0.4 mg/kg intravenously infused over 2 hours. The amount of AP1903 needed in vitro for effective signaling of cells is about 10-100 nM (MW: 1412 Da). This equates to 14-140 μg/L or ˜0.014-0.14 mg/kg ([…]). The dosage may vary according to the application, and may, in certain examples, be more in the range of 0.1-10 nM, or in the range of 50-150 nM, 10-200 nM, 75-125 nM, 100-500 nM, 100-600 nM, 100-700 nM, 100-800 nM, or 100-900 nM. Doses up to 1 mg/kg were well-tolerated in the Phase I study of AP1903 described above.

[1] = system: inducible caspase-9 expressing T cells; assay: CASPALLO and DOTTI trials: AP1903 given to subjects treated with T cells containing the iCaspase-9 suicide switch; format: in vivo, human
Experimental: The DOTTI trial is a follow-up study to the CASPALLO trial. Three subjects subsequently developed Grade I & II acute GVHD and were treated with a single dose of the dimerizing drug AP1903. Four subjects are alive at a median of 476 days after transplant (range 278-674 days), and who had received AP1903.

[2] = system: CD3+ΔCD19+ cells (iCasp9+ T cells); assay: Phase I clinical trial of allodepleted T cells transduced with inducible caspase-9 suicide gene after haploidentical stem cell transplantation; format: in vivo, human
Text: This example presents results of a phase 1 clinical trial using an alternative suicide gene strategy. Briefly, donor peripheral blood mononuclear cells were co-cultured with recipient irradiated EBV-transformed lymphoblastoid cells (40:1) for 72 hrs, allodepleted with a CD25 immunotoxin and then transduced with a retroviral supernatant carrying the iCasp9 suicide gene and a selection marker (ΔCD19); ΔCD19 allowed enrichment to >90% purity via immunomagnetic selection.
Patients developing grade 1 GvHD were treated with 0.4 mg/kg AP1903 as a 2-hour infusion. Protocols for administration of AP1903 to patients grade 1 GvHD were established as follows. Patients developing GvHD after infusion of allodepleted T cells are biopsied to confirm the diagnosis and receive 0.4 mg/kg of AP1903 as a 2 h infusion. […] Patients developing grades 2-4 GvHD were administered standard systemic immunosuppressive therapy per institutional guidelines, in addition to the AP1903 dimerizer drug.
Instructions for preparation and infusion: AP1903 for injection is obtained as a concentrated solution of 2.33 ml in a 3 ml vial, at a concentration of 5 mg/ml, (i.e., […] per vial). Prior to administration, the calculated dose was diluted to 100 mL in 0.9% normal saline for infusion. AP1903 for injection (0.4 mg/kg) in a volume of 100 ml was administered via IV infusion over 2 hours, using a non-DEHP, non-ethylene oxide sterilized infusion set and infusion pump.
Three patients received iCasp9^+ T cells after haplo-CD34^+ stem cell transplantation (SCT), at dose levels between about 1×10^6 to about 3×10^6 cells/kg.
Infused T cells were detected in vivo by flow cytometry (CD3^+ΔCD19^+) or qPCR as early as day 7 after infusion, with a maximum fold expansion of 170±5 (day 29±9 after infusion).

Cell A T cells (iCasp9) = assay: In vivo Cell A response to rimiducid in NSG mice (flow cytometry of spleens); set-up: species or system NSG mouse; settings: 24 hours after rimiducid 5 mg/kg i.p.; 42±1.1% in untreated mice; p<0.0001
Experimental: 16 mice received an i.v. injection of 1×10^7 Cell A T cells on Day 0 as outlined above. Forty eight hours later, eight of the mice were injected i.p. with rimiducid at 5 mg/kg to evaluate activation of iCasp9 and apoptosis of the Cell A T cells; the other eight mice were left untreated. […] Thus, the iCasp9 encoded within Cell A represents a functioning safety switch that can be triggered in vivo to eliminate Cell A cells.

[3] = system: Cell A T cells (iCasp9 suicide gene); assay: Overnight culture of spleen and bone marrow cells from Cell A-treated animals with or without rimiducid; format: cell-based, NSG mouse; settings: 10 nM rimiducid overnight; p<0.05
Experimental: A fraction of spleen and bone marrow cells were isolated from the Cell A-treated animals as analyzed above, and were cultured overnight with or without 10 nM rimiducid in order to determine the sensitivity of the suicide switch.

[4] = system: T cells transduced with the PRAME-TCR in combination with the iCasp9; assay: PRAME reactivity of T cells transduced with PRAME-TCR in combination with iCasp9 after AP1903 treatment; format: cell-based, human; settings: 100 nM AP1903 for 18 h (overnight)
Experimental: The TCRAV and TCRBV gene usage of clone AAV54 (also called clone 54 or HSS1) was determined using reverse transcriptase (RT)-PCR and sequencing^5. […]
FIG. 12, Different retroviral vectors encoding for the PRAME-TCR were transduced into virus specific T cells and the reactivity is measured against target cells loaded with different concentrations of the PRAME peptide and against two melanoma cell-lines: FM6 positive for HLA-A2 and PRAME, and M13046/2 positive for HLA-A2 but negative for PRAME. […]
FIG. 15 Different retroviral vectors encoding for the PRAME-TCR were transduced into virus specific T cells and the reactivity was measured against target cells (T2 cells) loaded with PRAME peptide and two PRAME positive and HLA-A2 positive melanoma cell-lines: 518.A2 and FM6, and one PRAME negative but HLA-A2 positive melanoma cell line M13046/2. […]

[5] = cited from earlier work
Ewing sarcoma cell lines = assay: HLA-class I expression of Ewing sarcoma cell lines after interferon treatment; format: cell-based, human; settings: 48 h, 300 IU/ml IFN-alpha or 100 IU/ml IFN-gamma
[6] = system: neuroblastoma (NB) cell lines; assay: HLA-class I expression of neuroblastoma cell lines after interferon treatment; format: cell-based, human; settings: 48 h, 300 IU/ml IFN-α or 100 IU/ml IFN-γ

Row | Molecule | amount of AP1903 needed for effective signaling, converted to dose (cells) [mg/kg] | amount of AP1903 needed in vitro for effective signaling of cells (cells) [nM] | amount of AP1903 needed in vitro for effective signaling of cells, converted (cells; MW 1412 Da) [µg/L] | elimination of inducible caspase-9 expressing T cells ([1]; 30 minutes from the end of a 2 hour intravenous infusion, CASPALLO trial) [%] | adverse events associated with AP1903 ([1]; CASPALLO and DOTTI trials) | acute GVHD after administration of AP1903 ([1]; four subjects, CASPALLO trial) | resolution of skin and liver aGvHD ([2]; after AP1903 administration) [h] | ablation of CD3+ΔCD19+ cells ([2]; within 30 minutes of infusion, two patients with grade I/II aGvHD, 0.4 mg/kg as 2-hour infusion) [%] | further reduction of CD3+ΔCD19+ cells ([2]; within 24 hours) | human T cells in spleen that were Vβ1+ (Cell A T cells (iCasp9)) [%] | fraction of Vβ1+ T cells recovered from spleen and bone marrow [3] | PRAME specific reactivity of T cells transduced with PRAME-TCR and iCasp9 after AP1903 [4] | well-tolerated doses ([5]; Phase I study) | adverse event considered possibly related to AP1903 ([5]; human, in vivo, 1 mg/kg) | AP1903 plasma levels versus dose ([5]; human, in vivo) | incidence of adverse events ([5]; human, in vivo) | serious adverse events ([5]; human, in vivo) | severity of adverse events ([5]; human, in vivo) | HLA-class I expression on the cell surface (Ewing sarcoma cell lines) | HLA-class I expression on the cell surface [6]
1 | CC[C@H](C(=O)N1CCCC[C@H]1C(=O)O[C@H](CCc1ccc(OC)c(OC)c1)c1cccc(OCC(=O)NCCNC(=O)COc2cccc([C@@H](CCc3ccc(OC)c(OC)c3)OC(=O)[C@@H]3CCCCN3C(=O)[C@@H](CC)c3cc(OC)c(OC)c(OC)c3)c2)c1)c1cc(OC)c(OC)c(OC)c1 (relative stereo) [AP1903, 2-Piperidinecarboxylic acid, 1-[(2S)-1-oxo-2-(3,4,5-trimethoxyphenyl)butyl]-, 1,2-ethanediylbis [imino(2-oxo-2,1-ethanediyl)oxy-3,1-phenylene[(1R)-3-(3,4-dimethoxyphenyl)propylidene]] ester, [2S-[1(R*),2R*[S*[S*[1(R*),2R*]]]]]-(9CI)] | 0.014 to 0.14 | 10 to 100 | 14 to 140 | ≥ 90 | No adverse events; also recorded: no immediate or delayed adverse events | rapidly abrogated | ≤ 24 | > 90 | further log reduction | 7.3±0.2 | significantly reduced | abrogated | up to 1 mg/kg | vasodilatation | directly proportional to dose | very low | No serious adverse events | mild |  | 
2 | B1 |  |  |  |  |  |  |  |  |  |  |  |  |  |  |  |  |  |  | increased | increased
